Data on 1 compound can be found in PMC6550521, “Stress-Induced Changes in the Lipid Microenvironment of β-(1,3)-D-Glucan Synthase Cause Clinically Important Echinocandin Resistance in Aspergillus fumigatus” (mBio, 2019).

SMILES strings stand for the structures. Several values for one entry are separate records, joined by “and”; a condition that tells them apart may be missing. Equal values may be shown once. Some results are limits rather than exact numbers.

Assay [1] has as its target β-(1,3)-D-glucan synthase of clinical isolate 117 (Aspergillus fumigatus, UniProt Q4WLT4). Nature of the assay: Glucan synthase kinetic inhibition assay, enzyme from clinical isolate 117. Conditions: enzyme from isolate 117 grown at 4 μg/ml CAS. It counts as biochemical.
In assay [2] the target is β-(1,3)-D-glucan synthase of clinical isolate 32458 (Aspergillus fumigatus, UniProt Q4WLT4). As to the kind of experiment: Glucan synthase kinetic inhibition assay, enzyme from clinical isolate 32458. It is filed as biochemical. As to conditions: enzyme from isolate 32458 grown at 4 μg/ml CAS.
A further assay concerns fks1 expression in RG101. As to the kind of experiment: fks1 expression by RT-PCR. It is filed as cell-based, Aspergillus fumigatus. As to conditions: RG101, 16 h in YPD, CAS 1 and 4 μg/ml. As to the method:
Supplementary file : FIG S1 fks1 expression levels in RG101 under uninduced and CAS-induced conditions. RG101 conidia were grown for 16 h in YPD in the absence and presence of CAS (1 and 4 μg/ml), and expression levels of fks1 were compared using reverse transcription-PCR (RT-PCR). […] Download FIG S1, DOCX file, 0.02 MB.

For assay [3], the system named is A. fumigatus RG101. Nature of the assay: Acute pulmonary aspergillosis model in neutropenic DBA/2 mice, lung fungal burden by qPCR. It is filed as in vivo, Aspergillus fumigatus. The protocol:
Resistance of RG101 to CAS in vivo was tested in an acute pulmonary aspergillosis model. Thirty inbred DBA/2 mice were rendered neutropenic and infected with 1 × 10^6 RG101 conidia intratracheally. The mice were then treated with CAS (5 mg/kg of body weight), MFG (5 mg/kg), or vehicle daily for 5 days, and lung burdens were determined using quantitative PCR (qPCR). Details of the experiment are provided in Text S1 in the supplemental material.
All animal experiments performed were approved by the Rutgers University Institutional Animal Care and Use Committee. Thirty female DBA/2 mice [The Jackson Laboratory, Bar Harbor, ME] were used in the experiment. The mice were housed in cages equipped with HEPA filters and were allowed free access to food and water. To establish neutropenia, mice were immunosuppressed with cyclophosphamide on days -4 (150 mg/kg), -1 and +2 (100 mg/kg) intraperitoneally (ip) and hydrocortisone on day -1 (200 mg/kg) via subcutaneous injection (sc). The animals were given prophylaxis sc ceftazidime (50 mg/kg) on all days to prevent secondary bacterial infections. A. fumigatus RG101 was streaked out from a frozen glycerol stock and cultured on Potato dextrose agar (PDA) slant for 2 days. The spores were harvested in phosphate-buffered saline (PBS) with 0.05% (v/v) Tween 20 and counted in a hemocytometer. The mice were briefly anesthetized IP Ketamine (65 mg/kg)/Xylazine (5 mg/kg) and infected with 1×10^6 spores of RG101 in 25 µL volume via intratracheal instillation. The 30 RG101 infected mice were randomized into following treatment arms for IP treatment: vehicle, CAS (5 mg/kg), and MFG (5 mg/kg). The first treatment was given at 3 h post infection (PI) and continued daily treatments were administered. On day 5 PI, mice were humanely euthanized via CO2 narcosis. Lungs were excised and homogenized in 1 ml of sterile PBS using a 2 ml tube containing ceramic spheres by MP Biomedicals (116913500). Tissue was then homogenized in 20 s bursts in a mini bead beater (MP FastPrep-24) followed by cooling on ice. DNA was then isolated from an aliquot of the lung homogenate (100 μl) using the QIAamp DNA Mini Kit by Qiagen (51304) and analyzed by real-time quantitative PCR (qPCR) using primers specific for A. fumigatus 18S rRNA genes (Wiederhold et al 2004).

For assay [4], the system named is lipid microenvironment of glucan synthase of RG101. As to the kind of experiment: Lipid analysis (LC-MS/MS) of partially purified glucan synthase. As to conditions: RG101 grown with CAS 1 μg/ml. It is filed as cell-based, Aspergillus fumigatus. As to the method: (§1) Approximately 10 μg/ml of partially purified glucan synthase of RG101 and clinical isolates was analyzed for lipid content by LC-MS/MS ([50]) at the Lipidomics Shared Resource of the Medical University of South Carolina (http://www.hollingscancercenter.org/research/shared-resources/lipidomics/index.html).

For assay [5], the system named is lipid microenvironment of glucan synthase of clinical isolates 117, 2770 and 32458. The description is as above. It counts as cell-based, Aspergillus fumigatus. Conditions: isolates 117, 2770, 32458 treated with CAS. The protocol: as §1
Assay [6] has as its target β-(1,3)-D-glucan synthase of clinical isolate 2770 (Aspergillus fumigatus, UniProt Q4WLT4). Nature of the assay: Glucan synthase kinetic inhibition assay, enzyme from clinical isolate 2770. It is filed as biochemical. As to conditions: enzyme from isolate 2770 grown at 4 μg/ml CAS.
For assay [7], the system named is A. fumigatus RG101. It is filed as cell-based, Aspergillus fumigatus. The protocol: The following drugs (supplier) were tested: caspofungin (Merck & Co., Inc.), micafungin (Astellas Pharma US, Inc.), anidulafungin (Pfizer Inc.), itraconazole (Sigma-Aldrich), voriconazole (Pfizer Inc.), and amphotericin B (Sigma-Aldrich). In addition, rezafungin and ibrexafungerp were obtained from Cidara Therapeutics and Scynexis Inc., respectively.

Assay [8] has as its system Aspergillus fumigatus clinical isolate 117. Nature of the assay: Antifungal susceptibility testing (MEC, CLSI M38-A2). It is filed as cell-based. Conditions: clinical isolate 117, fks1 WT. The protocol:
(§2) Minimum effective concentrations (MECs) for A. fumigatus strains were determined according to CLSI document M38-A2 ([48]) and defined as the lowest drug concentration that led to the growth of small, rounded, compact hyphal forms compared to the hyphal growth seen in the drug-free growth control wells. The following drugs (supplier) were tested: caspofungin (Merck & Co., Inc.), micafungin (Astellas Pharma US, Inc.), anidulafungin (Pfizer Inc.), itraconazole (Sigma-Aldrich), voriconazole (Pfizer Inc.), and amphotericin B (Sigma-Aldrich). In addition, rezafungin and ibrexafungerp were obtained from Cidara Therapeutics and Scynexis Inc., respectively.

In assay [9] the test system is Aspergillus fumigatus clinical isolate 32315. The description is as above. It counts as cell-based. Conditions: clinical isolate 32315, fks1 WT. The protocol:
as §2

For assay [10], the system named is Aspergillus fumigatus clinical isolate 2770. The assay is described as above. It counts as cell-based. As to conditions: clinical isolate 2770, fks1 WT. The protocol:
as §2

For assay [11], the system named is Aspergillus fumigatus clinical isolate 68284B. Described as above. It counts as cell-based. Conditions: fks1 WT. As to the method: as §2
Assay [12] deals with Aspergillus fumigatus clinical isolate 32458. Described as above. Conditions: clinical isolate 32458, fks1 WT. It counts as cell-based. As to the method:
as §2

β-(1,3)-D-glucan synthase of clinical isolate 2770, sequence (Q4WLT4 1-1904): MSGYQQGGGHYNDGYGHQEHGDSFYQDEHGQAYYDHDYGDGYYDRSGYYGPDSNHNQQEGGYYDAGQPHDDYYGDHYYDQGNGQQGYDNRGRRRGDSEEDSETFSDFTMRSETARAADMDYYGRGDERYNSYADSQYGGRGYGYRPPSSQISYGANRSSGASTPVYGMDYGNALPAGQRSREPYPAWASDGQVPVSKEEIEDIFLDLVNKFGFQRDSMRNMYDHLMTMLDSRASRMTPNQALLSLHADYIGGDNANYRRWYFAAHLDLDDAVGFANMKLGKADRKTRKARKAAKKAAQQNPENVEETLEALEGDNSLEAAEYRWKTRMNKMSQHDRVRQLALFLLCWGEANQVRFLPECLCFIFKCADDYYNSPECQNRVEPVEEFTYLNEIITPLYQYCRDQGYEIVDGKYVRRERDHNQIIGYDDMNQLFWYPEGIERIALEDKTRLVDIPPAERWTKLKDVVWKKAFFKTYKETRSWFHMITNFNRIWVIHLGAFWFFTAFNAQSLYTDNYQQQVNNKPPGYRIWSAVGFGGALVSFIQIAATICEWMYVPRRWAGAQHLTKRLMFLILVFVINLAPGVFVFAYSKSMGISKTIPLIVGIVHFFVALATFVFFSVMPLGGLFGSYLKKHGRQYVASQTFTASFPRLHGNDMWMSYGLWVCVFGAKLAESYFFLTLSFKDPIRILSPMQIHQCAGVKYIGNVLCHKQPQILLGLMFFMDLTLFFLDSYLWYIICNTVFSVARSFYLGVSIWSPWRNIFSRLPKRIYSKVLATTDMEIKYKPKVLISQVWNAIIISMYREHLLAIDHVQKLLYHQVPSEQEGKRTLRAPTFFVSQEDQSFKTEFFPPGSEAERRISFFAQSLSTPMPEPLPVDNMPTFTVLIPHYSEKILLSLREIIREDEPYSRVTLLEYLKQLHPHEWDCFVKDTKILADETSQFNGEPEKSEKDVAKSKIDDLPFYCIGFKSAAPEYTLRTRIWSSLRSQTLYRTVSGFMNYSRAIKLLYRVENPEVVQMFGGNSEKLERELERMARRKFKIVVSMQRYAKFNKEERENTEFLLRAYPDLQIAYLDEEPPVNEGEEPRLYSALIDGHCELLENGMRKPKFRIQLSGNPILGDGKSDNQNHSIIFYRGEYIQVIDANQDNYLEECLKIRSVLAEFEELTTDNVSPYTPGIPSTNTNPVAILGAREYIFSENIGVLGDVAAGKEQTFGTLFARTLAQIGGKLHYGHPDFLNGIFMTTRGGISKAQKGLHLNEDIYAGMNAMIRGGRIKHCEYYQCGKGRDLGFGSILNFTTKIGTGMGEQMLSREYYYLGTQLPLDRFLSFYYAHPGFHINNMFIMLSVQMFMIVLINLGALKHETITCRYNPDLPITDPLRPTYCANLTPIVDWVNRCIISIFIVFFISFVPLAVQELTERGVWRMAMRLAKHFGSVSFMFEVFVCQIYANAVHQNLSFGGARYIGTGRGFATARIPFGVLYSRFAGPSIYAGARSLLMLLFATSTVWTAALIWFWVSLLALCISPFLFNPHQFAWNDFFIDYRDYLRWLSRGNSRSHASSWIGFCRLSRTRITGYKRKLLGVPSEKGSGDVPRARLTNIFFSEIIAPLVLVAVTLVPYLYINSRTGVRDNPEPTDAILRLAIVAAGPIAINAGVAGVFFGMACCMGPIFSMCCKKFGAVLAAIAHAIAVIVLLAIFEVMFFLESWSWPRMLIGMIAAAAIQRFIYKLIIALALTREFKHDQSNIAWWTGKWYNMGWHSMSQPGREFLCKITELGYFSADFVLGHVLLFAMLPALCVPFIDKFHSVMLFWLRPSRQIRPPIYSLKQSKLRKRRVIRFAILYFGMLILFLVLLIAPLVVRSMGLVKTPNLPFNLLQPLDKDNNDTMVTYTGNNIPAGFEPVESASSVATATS
β-(1,3)-D-glucan synthase of clinical isolate 117, sequence (Q4WLT4 1-1904): as above

Consider `CC[C@H](C)C[C@H](C)CCCCCCCCC(=O)N[C@H]1C[C@@H](O)[C@@H](NCCN)NC(=O)[C@@H]2[C@@H](O)CCN2C(=O)[C@H]([C@H](O)CCN)NC(=O)[C@H]([C@H](O)[C@@H](O)c2ccc(O)cc2)NC(=O)[C@@H]2C[C@@H](O)CN2C(=O)[C@H]([C@@H](C)O)NC1=O` [CAS, caspofungin], for which the results for the IC50 in assay [1], in assay [2] and in assay [6] were above 9.15 µM, around 4.57 µM and above 9.15 µM, respectively. Besides, the “fks1 expression levels, CAS-induced vs uninduced” value in the assay with fks1 expression in RG101 is “No significant differences”. In the assay on A. fumigatus RG101 [3] (RG101, 5 mg/kg daily for 5 days), the “Decrease in lung burden versus vehicle-treated group” value was “No significant differences”. In the assay with A. fumigatus RG101 [3] (RG101 intratracheal, 5 mg/kg daily IP for 5 days, qPCR), the “Average fungal lung burden” value turned out to be 22.6 ng fungal DNA per lung. Moreover, the “Increase in abundance of dihydrosphingosine (DhSph), CAS-treated vs untreated” value in assay [4] was 2 fold and 3 fold. In addition, the “Increase in abundance of phytoceramide (C24), CAS-induced vs uninduced” value in [4] is reported as 3 fold. The “Increase in abundance of phytosphingosine (PhSph), CAS-treated vs untreated” value in assay [4] is recorded as 10 fold. Further, the “Abundance of DhSph and PhSph in enzyme preparations of CAS-treated clinical isolates” value in [5] is on record as “significantly increased abundance”. Also, the “Breakthrough growth concentrations, RG101” value in the assay on A. fumigatus RG101 [7] (24 h) was 0.5 to 8 µg/mL. The “MEC 2 (rosettes form again), RG101” value in the assay with A. fumigatus RG101 [7] (24 h) was determined as 16 µg/mL. In the assay on A. fumigatus RG101 [7] (24 h), the “Susceptibility phenotype of RG101” value is reported as “resistant”. The “Growth phenotype of RG101 at 30 h” value in the assay with A. fumigatus RG101 [7] (30 h, all concentrations tested (0.25 to 8 μg/ml)) was “full breakthrough”. The “MEC (minimum effective concentration)” value in assay [8] was 16 µg/mL; in assay [9], 16 µg/mL; in assay [10], 16 µg/mL; in assay [11], 4 µg/mL; in [12] it was 16 µg/mL.
